Measured values reported in ChEMBL document CHEMBL1154170, “2-Oxoglutarate analogue inhibitors of prolyl hydroxylase domain 2” (Bioorg Med Chem Lett, 2009).

target: Egl nine homolog 1 (Homo sapiens, UniProt Q9GZT9); experiment: Inhibition of human PHD2 catalytic domain (181-426) by FRET assay
Sequence (Q9GZT9 whole entry, the tested form may be a part): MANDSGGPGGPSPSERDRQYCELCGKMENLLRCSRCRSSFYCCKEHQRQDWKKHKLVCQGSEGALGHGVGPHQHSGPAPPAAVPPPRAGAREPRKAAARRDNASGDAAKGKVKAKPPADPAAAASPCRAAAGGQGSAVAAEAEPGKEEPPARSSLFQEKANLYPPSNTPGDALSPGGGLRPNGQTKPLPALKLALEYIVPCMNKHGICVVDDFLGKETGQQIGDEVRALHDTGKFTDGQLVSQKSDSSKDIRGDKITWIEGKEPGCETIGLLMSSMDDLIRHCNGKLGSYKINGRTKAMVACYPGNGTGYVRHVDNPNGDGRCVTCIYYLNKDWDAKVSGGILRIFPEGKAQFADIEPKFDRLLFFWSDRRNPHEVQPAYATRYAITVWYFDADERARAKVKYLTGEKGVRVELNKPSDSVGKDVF

Structure (SMILES) | IC50
O=C(O)CCC(=O)NO | 94 µM
CC(=O)CC(=O)CCC(=O)O [SUCCINYLACETONE] | 18 µM
COC(=O)C(=O)NCC(=O)O | 95 µM
COC(=O)CNC(=O)C(=O)O | > 1000 µM
CCOC(=O)C(=O)NCC(=O)O | 78 µM
CCOC(=O)CC(=O)NCC(=O)O | > 1000 µM
CCNC(=O)C(=O)NCC(=O)O | > 1000 µM
O=C(O)CNC(=O)CC(=O)c1ccccc1 | > 1000 µM
CC(=O)CC(=O)NCC(=O)O | > 1000 µM
O=C(O)CNC(=O)CC(=O)O | 398 µM

The next lines start with the values.

IC50 | Structure (SMILES)
> 1000 µM | CCNC(=O)C(=O)CCC(=O)O
> 1000 µM | O=C(O)CN1CCNC(=O)C1=O
> 1000 µM | O=C(O)CNC(=O)C(=O)NCc1ccccc1
> 1000 µM | O=C(O)CNC(=O)NO
538 µM | O=C(O)CNC(=O)C(=O)C(=O)c1ccccc1
